# Laboratory results taken from US8754257B2, “Pharmaceutical-grade ferric organic compounds, uses thereof and methods of making same” (GloboAsia, LLC, priority 2003, dated 2014).
# Entries after “also recorded” stand apart in the source; their conditions may differ.
# Tests used:
# [1] = system: patients with kidney disease; conditions: patients with kidney disease receiving doses of ferric citrate; cited from earlier work
# [2] = system: patients with End Stage Renal Disease (ESRD); conditions: cited from earlier work
# [3] = Intrinsic dissolution rate of ferric citrate; assay type: physicochemical; conditions: for Intrinsic Dissolution Rates: 37° C., solutions of pH 8
# Text: The intrinsic dissolution rate is defined as the dissolution rate of pure substances under the condition of constant surface area. […] The measured intrinsic dissolution rate is dependent on these solid-state properties and is typically determined by exposing a constant surface area of a material to an appropriate dissolution medium while maintaining constant temperature, stirring rate, and pH.
# [4] = BET active surface area measurement; assay type: physicochemical; conditions: for BET Active Surface Area: Table 2, one value per pair of samples -1/-2
# Experimental: The analysis of active surface area is based on BET theory which describes the phenomenon of mass and energy interaction and phase changes during as adsorption onto solid surfaces and in pore spaces. In BET active surface area measurement, the volume of a monolayer of gas is determined which allows the surface area of the sample to be determined using the area occupied by a single layer of adsorbed gas molecule.
# [5] = system: patients; test: Clinical study of pharmaceutical-grade ferric citrate in patients in vivo; design: species or system human
# Experimental: Ferric citrate is supplied in 500 mg capsules, whereas the placebo will be provided in identical-looking capsules (indistinguishable from those containing the active drug); the placebo capsules will contain sorbitol and colorant to match the powder color of the active capsules. The placebo capsule shells will be identical to the active capsule shells.
# An non-limiting example of a dosing regimen is provided below. This is not meant to limit the invention as to how an effective amount of ferric citrate is selected, or the form in which it is provided or the frequency of administering the composition per day. The following merely illustrates how ferric citrate and placebo may be administered; e.g., as 500 mg capsules of identical appearance. All patients may receive (in a blinded fashion) 4 capsules with each of three meals, on a daily basis, for 28 days. Patients will be instructed to take the study medication within 10 minutes of finishing their meals (breakfast, lunch, and dinner).
# • 4 placebo capsules, with breakfast. • 4 placebo capsules, with lunch. • 4 placebo capsules with dinner Ferric Citrate 2 g Per Day Arm of the Study • 1 ferric citrate capsule and 3 placebo capsules with breakfast • 1 ferric citrate capsule and 3 placebo capsules with lunch • 2 ferric citrate capsules and 2 placebo capsules with dinner Ferric Citrate 4 g Per Day Arm • 2 ferric citrate capsules and 2 placebo capsules with breakfast • 3 ferric citrate capsule and 1 placebo capsule with lunch • 3 ferric citrate capsules and 1 placebo capsule with dinner Ferric Citrate 6 g Per Day Arm • 4 ferric citrate capsules with breakfast • 4 ferric citrate capsules with lunch • 4 ferric citrate capsules with dinner B. Clinical Schedule and Assessments Duration of Study Treatment
# Each patient's participation in the trial lasts for up to 8 weeks: the screening period (approximately 1-2 weeks), a 1-2 week washout, and 4 weeks of treatment with study medication.
# The following procedures will be performed at the first screening visit: • 1. Medical history, including concomitant medications. • 2. Demographic data • 3. Physical examination, including height, weight, and vital signs. • 4. Dietary interview, using 24 hour recall method, to assess dietary intake of calcium and phosphorous, three times during screening period, to include one dialysis day, one non-dialysis day, and one weekend day. Note: Dietary interview may be also performed, in part or in whole, during the washout period. • 5. […]
substance,measurement,setting,value
ferric citrate,calcium deposits on the eye,[1],reversal of calcium deposits on the eye
same,GI symptoms,[2]; 3 g daily,"mild, hut tolerable GI symptoms"
same,change in serum P04,[2]; 3 g daily,significant decrease in serum P04
same,efficacy in reducing serum P04 compared with calcium carbonate (3 g daily),[2],not as effective as calcium carbonate
ferric citrate [PAN031203A],Intrinsic Dissolution Rates,[3],3.82 mg/cm2/min
ferric citrate [PAN031203B],Intrinsic Dissolution Rates,[3],4.00 mg/cm2/min
ferric citrate [PAN031203C],Intrinsic Dissolution Rates,[3],2.68 mg/cm2/min
ferric citrate [PAN031203D],Intrinsic Dissolution Rates,[3],2.95 mg/cm2/min
ferric citrate [PAN031203E],Intrinsic Dissolution Rates,[3],3.13 mg/cm2/min
"ferric citrate [RFS-12-1, reference compound]",BET Active Surface Area,[4],0.61
ferric citrate [STM-134-1],BET Active Surface Area,[4],16.17
ferric citrate [STM-134],Intrinsic Dissolution Rates,[3],1.88 mg/cm2/min
ferric citrate [STM-182-1],BET Active Surface Area,[4],19.85
ferric citrate [ferric citrate of the present invention],dissolution rate compared with commercially available ferric citrate,[3]; experiment simulating the alkaline condition in the small intestine,better dissolution rate than the commercially available ferric citrate
same,intrinsic dissolution rate relative to commercially available ferric citrate,[3]; pH 8.0,3.08 times
same,BET active surface area relative to commercially available ferric citrate,[4],at least 16 times
same,adverse side effects compared with placebo,[5]; FIG. 12,not statistically different from chose associated with the placebo
same,adverse side effects / safety profile compared with chemical grade ferric citrate,"[5]; oral capsules, FIG. 12, listed as pharmaceutical grade ferric citrate",less adverse clinical effects; also recorded: significantly more desirable safety profile
same,adverse side effects / safety profile compared with chemical grade ferric citrate,"[5]; oral capsules, FIG. 12, listed as pharmaceutical-grade ferric citrate",less adverse side effects than chemical grade ferric citrate
same,efficacy compared with chemical grade ferric citrate,"[5]; oral capsules, FIG. 13, listed as pharmaceutical-grade ferric citrate",approximately equal so that of chemical grade ferric citrate
